In patent publication US9120812B2, “Pyrimidooxazocine derivatives as mTOR-inhibitors” (SANOFI, priority 2012, dated 2015):

Experiments:
Akt-pS473 in U87MG cells = conditions: Homo sapiens, U-87 MG, read-out: U87 Akt-pS473 % Inhibition or IC50, nM (IC50), U87MG cells
[1] = target: mTOR (human recombinant aa mTOR 1360-2549) (Homo sapiens (Human), UniProt P42345); experiment: mTOR enzymatic test by TR-FRET (phosphorylation of GFP-4EBP1); assay type: biochemical
In short: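 After a 30 min room-temperature kinase reaction, EDTA (10 mM final) and Tb-labelled phospho-Thr46 antibody (2 nM final) were added and incubated 60 min. Energy transfer from Tb to phosphorylated GFP-4EBP1 was read at 340 nm excitation, emissions 490/520 nm. Values derive from the 520/490 fluorescence ratio.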

U87MG tumour cells = experiment: Test of in vitro proliferation of U87MG tumour cells; assay type: cell-based; conditions: Homo sapiens, U-87 MG, 72 h, U87MG cells, 72 hours; read-out: U87 Cell Proliferation IC50
Procedure: Model 4: Test of in vitro Proliferation of U87MG Tumour Cells.
The cell growth is determined with the reagent CellTiter 96 AQueous One Solution Cell Proliferation Assay from Promega (Cat. No. G3581).

PI3Kα (p110α/p85α) = PI3Kα (p110α/p85α) (Homo sapiens (Human), UniProt P42336); experiment: PI3Kα enzymatic test by measuring the consumption of ATP; assay type: biochemical
In short: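 ATP consumption read out by KinaseGlo luminescence after a 90 min reaction of 1.7 μg/ml PI3Kα (p110α/p85α) with 2 μM ATP and 50 μM PIP2, buffered at pH 7.5 (Tris, 10 mM MgCl2, 1 mM EGTA, 0.03% Chaps, 1 mM DTT). Threefold dilution series over ≥10 000-fold range yield IC50.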

Chain of PI3Kα (p110α/p85α) (P42336 whole entry): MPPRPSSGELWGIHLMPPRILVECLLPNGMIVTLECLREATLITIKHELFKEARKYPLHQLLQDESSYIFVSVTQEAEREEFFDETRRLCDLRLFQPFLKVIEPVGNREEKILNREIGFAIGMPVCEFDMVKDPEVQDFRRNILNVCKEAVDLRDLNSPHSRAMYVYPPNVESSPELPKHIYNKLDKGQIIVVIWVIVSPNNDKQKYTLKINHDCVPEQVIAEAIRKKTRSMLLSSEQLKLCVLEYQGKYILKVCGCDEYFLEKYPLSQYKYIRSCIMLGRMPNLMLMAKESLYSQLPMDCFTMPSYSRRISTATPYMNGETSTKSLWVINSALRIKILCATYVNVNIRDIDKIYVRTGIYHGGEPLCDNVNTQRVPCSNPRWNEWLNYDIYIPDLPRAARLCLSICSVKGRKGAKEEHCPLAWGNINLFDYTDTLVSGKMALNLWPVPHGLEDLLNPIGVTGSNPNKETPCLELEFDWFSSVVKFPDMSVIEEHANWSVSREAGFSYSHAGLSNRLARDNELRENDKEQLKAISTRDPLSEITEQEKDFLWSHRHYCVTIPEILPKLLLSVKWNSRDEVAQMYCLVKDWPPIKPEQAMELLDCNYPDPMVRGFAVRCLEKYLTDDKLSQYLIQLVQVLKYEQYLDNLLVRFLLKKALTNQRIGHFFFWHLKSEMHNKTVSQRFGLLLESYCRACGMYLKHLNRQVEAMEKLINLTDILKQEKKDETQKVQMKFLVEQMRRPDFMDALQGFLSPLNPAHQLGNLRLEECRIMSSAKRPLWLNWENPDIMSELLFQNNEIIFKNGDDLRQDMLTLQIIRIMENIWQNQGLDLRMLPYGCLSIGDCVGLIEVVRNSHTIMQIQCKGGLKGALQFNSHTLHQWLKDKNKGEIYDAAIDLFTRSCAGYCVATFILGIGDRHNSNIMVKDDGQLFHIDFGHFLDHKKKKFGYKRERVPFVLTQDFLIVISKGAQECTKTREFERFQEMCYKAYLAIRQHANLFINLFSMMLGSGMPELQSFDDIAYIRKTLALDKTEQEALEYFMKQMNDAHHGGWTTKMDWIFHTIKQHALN
Chain of PI3Kα (p110α/p85α) (P27986 whole entry partner): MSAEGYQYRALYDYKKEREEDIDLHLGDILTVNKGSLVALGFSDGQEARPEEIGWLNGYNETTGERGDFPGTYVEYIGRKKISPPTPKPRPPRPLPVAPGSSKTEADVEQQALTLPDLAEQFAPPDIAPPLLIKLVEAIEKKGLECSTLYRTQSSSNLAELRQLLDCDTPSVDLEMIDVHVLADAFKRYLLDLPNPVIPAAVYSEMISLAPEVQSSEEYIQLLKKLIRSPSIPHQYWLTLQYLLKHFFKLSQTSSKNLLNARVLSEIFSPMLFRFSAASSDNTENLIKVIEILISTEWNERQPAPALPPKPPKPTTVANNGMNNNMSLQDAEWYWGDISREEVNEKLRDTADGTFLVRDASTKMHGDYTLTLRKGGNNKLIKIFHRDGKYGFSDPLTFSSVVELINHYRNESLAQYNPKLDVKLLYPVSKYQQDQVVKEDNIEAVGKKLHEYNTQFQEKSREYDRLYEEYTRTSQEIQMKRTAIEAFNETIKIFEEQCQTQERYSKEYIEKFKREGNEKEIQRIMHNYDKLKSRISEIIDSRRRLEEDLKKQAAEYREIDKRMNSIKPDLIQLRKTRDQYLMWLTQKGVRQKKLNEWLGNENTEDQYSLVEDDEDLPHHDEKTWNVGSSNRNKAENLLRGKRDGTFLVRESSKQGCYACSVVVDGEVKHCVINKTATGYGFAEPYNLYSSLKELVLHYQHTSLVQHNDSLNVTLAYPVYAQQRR
Chain of mTOR (human recombinant aa mTOR 1360-2549) (P42345 1360-2549): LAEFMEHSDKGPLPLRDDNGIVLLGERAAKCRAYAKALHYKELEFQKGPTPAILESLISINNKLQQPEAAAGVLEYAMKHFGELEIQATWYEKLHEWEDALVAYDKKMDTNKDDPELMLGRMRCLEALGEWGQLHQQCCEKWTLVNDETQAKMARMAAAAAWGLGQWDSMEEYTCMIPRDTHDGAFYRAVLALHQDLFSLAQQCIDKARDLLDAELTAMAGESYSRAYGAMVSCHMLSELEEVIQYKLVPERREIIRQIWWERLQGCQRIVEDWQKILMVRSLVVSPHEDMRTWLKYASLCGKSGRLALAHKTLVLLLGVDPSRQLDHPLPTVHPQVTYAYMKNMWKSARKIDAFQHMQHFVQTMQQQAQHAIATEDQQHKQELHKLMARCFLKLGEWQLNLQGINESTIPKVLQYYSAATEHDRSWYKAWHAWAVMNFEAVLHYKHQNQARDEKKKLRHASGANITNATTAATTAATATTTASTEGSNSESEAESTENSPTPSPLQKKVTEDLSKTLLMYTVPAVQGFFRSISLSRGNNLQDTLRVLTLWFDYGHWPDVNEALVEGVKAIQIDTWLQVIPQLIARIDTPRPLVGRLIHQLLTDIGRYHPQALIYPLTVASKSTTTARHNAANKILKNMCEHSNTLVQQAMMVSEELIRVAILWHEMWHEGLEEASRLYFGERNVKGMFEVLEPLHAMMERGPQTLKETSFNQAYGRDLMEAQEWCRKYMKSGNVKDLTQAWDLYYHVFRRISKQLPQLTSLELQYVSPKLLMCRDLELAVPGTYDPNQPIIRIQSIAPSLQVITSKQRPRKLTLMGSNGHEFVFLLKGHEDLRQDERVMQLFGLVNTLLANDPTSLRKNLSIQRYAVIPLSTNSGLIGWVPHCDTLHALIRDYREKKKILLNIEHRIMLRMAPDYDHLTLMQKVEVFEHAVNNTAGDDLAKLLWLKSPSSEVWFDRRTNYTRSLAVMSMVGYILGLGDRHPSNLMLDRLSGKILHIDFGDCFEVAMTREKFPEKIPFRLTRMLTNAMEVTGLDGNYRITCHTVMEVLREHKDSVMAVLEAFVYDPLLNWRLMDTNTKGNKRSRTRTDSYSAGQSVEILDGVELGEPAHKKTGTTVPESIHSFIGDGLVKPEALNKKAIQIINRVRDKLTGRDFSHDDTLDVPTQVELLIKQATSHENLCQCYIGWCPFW

Compound | IC50 (Akt-pS473 in U87MG cells) [nM] | IC50 [1] [nM] | IC50 (U87MG tumour cells) [nM] | PI3Ka IC50 (PI3Kα (p110α/p85α)) [nM]
CCN1CC(C)(C)Oc2nc(N3CC4CCC(C3)O4)nc(-c3ccc(NC(=O)Nc4cccc(C(F)(F)F)c4)cc3)c2C1=O [Example 147, 1-{4-[6-Ethyl-8,8-dimethyl-2-(8-oxa-3-azabicyclo[3.2.1]oct-3-yl)-5-oxo-5,6,7,8-tetrahydro-9-oxa-1,3,6-triazabenzocyclohepten-4-yl]phenyl}-3-(3-trifluoromethylphenyl)urea] | 28 | 182 | 297 | >10000
CCN1CC(C)(C)Oc2nc(N3CCOC[C@@H]3C)nc(-c3ccc(NC(=O)Nc4cccc(OC(F)F)c4)cc3)c2C1=O [Example 204, 1-(3-Difluoromethoxyphenyl)-3-{4-[6-ethyl-8,8-dimethyl-2-((S)-3-methylmorpholin-4-yl)-5-oxo-5,6,7,8-tetrahydro-9-oxa-1,3,6-triazabenzocyclohepten-4-yl]phenyl}urea] | 18 | 61 | 74 | 468
CCN1CC(C)(C)Oc2nc(N3CC4CCC(C3)O4)nc(-c3ccc(Nc4nnc(C)s4)cc3)c2C1=O [Example 121, 6-Ethyl-8,8-dimethyl-4-[4-(5-methyl-[1,3,4]thiadiazol-2-ylamino)phenyl]-2-(8-oxa-3-azabicyclo[3.2.1]oct-3-yl)-7,8-dihydro-6H-9-oxa-1,3,6-triazabenzocyclohepten-5-one] | 130 | 66 | 802 | >10000
CNC(=O)Nc1ccc(-c2nc(N3CC4CCC(C3)O4)nc3c2C(=O)N(C)CC(C)(C)O3)cc1 [Example 38, 1-Methyl-3-{4-[6,8,8-trimethyl-2-(8-oxa-3-azabicyclo[3.2.1]oct-3-yl)-5-oxo-5,6,7,8-tetrahydro-9-oxa-1,3,6-triazabenzocyclohepten-4-yl]phenyl}urea] | 23 | 22 | 218 | 3450
CCN1CC(C)(C)Oc2nc(N3CC4CCC(C3)O4)nc(-c3ccc(NC(=O)Nc4ccc(N5CCOCC5)nc4)c(F)c3)c2C1=O [Example 200, 1-{4-[6-Ethyl-8,8-dimethyl-2-(8-oxa-3-azabicyclo[3.2.1]oct-3-yl)-5-oxo-5,6,7,8-tetrahydro-9-oxa-1,3,6-triazabenzocyclohepten-4-yl]-2-fluorophenyl}-3-(6-morpholin-4-ylpyridin-3-yl)urea] | 9 | 52 | 108 | >10000
CCN1CC(C)(C)Oc2nc(N3C4CCC3COC4)nc(-c3ccc(NC(=O)Nc4ccc(N5CC6CCC(C5)O6)nc4)c(F)c3)c2C1=O [Example 259, 1-{4-[6-Ethyl-8,8-dimethyl-2-(3-oxa-8-azabicyclo[3.2.1]oct-8-yl)-5-oxo-5,6,7,8-tetrahydro-9-oxa-1,3,6-triazabenzocyclohepten-4-yl]-2-fluorophenyl}-3-[6-(8-oxa-3-azabicyclo[3.2.1]oct-3-yl)pyridin-3-yl]urea] | 16 | 87 | 87 | >10000
CCN1CC(C)(C)Oc2nc(N3CCOC[C@@H]3C)nc(-c3ccc(NC(=O)Nc4ccnc(C)c4)c(F)c3)c2C1=O [Example 199, 1-{4-[6-Ethyl-8,8-dimethyl-2-((S)-3-methylmorpholin-4-yl)-5-oxo-5,6,7,8-tetrahydro-9-oxa-1,3,6-triazabenzocyclohepten-4-yl]-2-fluorophenyl}-3-(2-methylpyridin-4-yl)urea] | 10 | 39 | 32 | 174
CCN1CC(C)(C)Oc2nc(N3C4CCC3COC4)nc(-c3ccc(NC(=O)Nc4cc(OC)ccn4)cc3F)c2C1=O [Example 89, 1-{4-[6-Ethyl-8,8-dimethyl-2-(3-oxa-8-azabicyclo[3.2.1]oct-8-yl)-5-oxo-5,6,7,8-tetrahydro-9-oxa-1,3,6-triazabenzocyclohepten-4-yl]-3-fluorophenyl}-3-(4-methoxypyridin-2-yl)urea] | 260 | 84 | 221 | >10000
